This note sets out measurements from US20210161997A1, “TREATING DISEASES VIA TARGETED MODULATION OF GENE SIGNALING NETWORKS” (Camp4 Therapeutics Corporation, priority 2018, published 2021).

The test system of data set [1] is MECP2 mRNA. Briefly: qPCR of MECP2 mRNA in mouse hepatocytes. To be noted: 10 uM, qPCR relative to DMSO control (FIG. 8). The source says: (§1) Samples were amplified using Taqman probes from ThermoFisher.
Background: Real-time PCR tracks product formation cycle by cycle.

Data set [2] relates to MECP2 mRNA. In words: MECP2 mRNA in primary human hepatocytes (donor 1, donor 2). In kind it is cell-based. To be noted: two donors, indicated dosages vs DMSO (FIGS. 10A and 10B). The method, then:
Human hepatocytes were obtained from two donors from Massachusetts General Hospital, namely MGH54 and MGH63, and one donor from Lonza, namely HUM4111B. Cryopreserved hepatocytes were cultured in plating media for 16 hours, transferred to maintenance media for 4 hours. Cultured on serum-free media for 2 hours, then a compound was added. The hepatocytes were maintained on the serum-free media for 16 hours prior to gene expression analysis. Primary human hepatocytes were stored in the vapor phase of a liquid nitrogen freezer (about −130° C.).
Human hepatocytes cultured as described above were plated in 24-well format, adding 375,000 cells per well in a volume of 500 ul plating medium. Four hours before treatment, cells were washed with PBS and the medium was changed to either: fresh maintenance medium (complete) or modified maintenance medium.
Compound stocks were prepared at 1000× final concentration and added in a 2-step dilution to the medium to reduce risk of a compound precipitating out of solution when added to the cells, and to ensure reasonable pipetting volumes. One at a time, each compound was first diluted 10-fold in warm (about 37° C.) modified maintenance medium (initial dilution=ID), mixed by vortexing, and the ID was diluted 100-fold into the cell culture (e.g. 5.1 ul into 1 well of a 24-well plate containing 0.5 mL medium). The plate was mixed by carefully swirling and after all wells were treated and returned to the incubator overnight. If desired, separate plates/wells were treated with vehicle-only controls and/or positive controls. If using multi-well plates, controls were included on each plate. After about 18 hours, cells were harvested for further analysis, e.g., ChIP-seq, RNA-seq, ATAC-seq, etc.
as §1

The test system of a further data set is ANGPTL3. Briefly: RNA-seq of ANGPTL3 expression in compound-treated primary human hepatocytes. In kind it is cell-based. To be noted: additional compounds (Table 13), linear fold change. Summed up: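 Cryopreserved primary human hepatocytes from three donors, plated at 375,000 cells/well, switched to complete or modified maintenance medium, then dosed with compound (stocks at 1000× final) for about 18 h. Poly(A) mRNA was sequenced directionally, mapped to GRCh38 with STAR, and gene-level abundance (counts, FPKM) estimated with RSEM against GENCODE 24.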

The subject of data set [3] is SERPINC1 mRNA. In words: Quantitative PCR of SERPINC1 mRNA in primary human hepatocytes (Lonza Hu4282) treated with compounds. In kind it is cell-based. To be noted: quantitative PCR; for SERPINC1 mRNA, Lonza Hu4282, 1 uM / SERPINC1 mRNA, Lonza Hu4282, 10 uM: primary human hepatocytes Lonza Hu4282; for SERPINC1 mRNA, Lonza Hu4282, 1 uM / SERPINC1 mRNA, H8290, 1 uM: compound 1 uM; for SERPINC1 mRNA, Lonza Hu4282, 10 uM / SERPINC1 mRNA, H8290, 10 uM: compound 10 uM; for SERPINC1 mRNA, H8290, 1 uM / SERPINC1 mRNA, H8290, 10 uM: hepatocytes H8290.

Data set [4] deals with SERPINC1 mRNA. Briefly: Quantitative PCR of SERPINC1 mRNA in mouse hepatocytes treated with compounds. Particulars: for SERPINC1 mRNA, Mouse Heps, 1 uM: compound 1 uM; for SERPINC1 mRNA, Mouse Heps, 10 uM: compound 10 uM. In kind it is cell-based. The method, then: as §1
In some examples, RQ Min and RQ Max values are also reported. RQ Min and RQ Max are the minimum and maximum relative levels of gene expression in the test samples, respectively. They were calculated using the confidence level set in the analysis settings and the confidence level was set to one standard deviation (SD). These values were calculated using standard deviation as follows: […].
Compounds were tested in hepatocytes for upregulation of SERPINC1 mRNA for identification of potential treatments of SERPINC1/AT III deficiency.

Data set [5] relates to SERPINC1 mRNA. In words: RNA seq of SERPINC1 in MGH54 cells treated with select compounds. In kind it is cell-based, human. Particulars: compound 10 uM.
The next data set deals with SERPINC1. Briefly: RNA-seq of SERPINC1 expression in compound-treated primary human hepatocytes. To be noted: significance FPKM ≥1, log 2(fold change) ≥0.5, q-value ≤0.05. In kind it is cell-based. The method, then:
Human hepatocytes were obtained from two donors from Massachusetts General Hospital, namely MGH54 and MGH63, and one donor from Lonza, namely HUM4111B. Cryopreserved hepatocytes were cultured in plating media for 16 hours, transferred to maintenance media for 4 hours. Cultured on serum-free media for 2 hours, then a compound was added. The hepatocytes were maintained on the serum-free media for 16 hours prior to gene expression analysis. Primary human hepatocytes were stored in the vapor phase of a liquid nitrogen freezer (about -130° C.). Human hepatocytes cultured as described above were plated in 24-well format, adding 375,000 cells per well in a volume of 500 ul plating medium. Four hours before treatment, cells were washed with PBS and the medium was changed to either: fresh maintenance medium (complete) or modified maintenance medium. Compound stocks were prepared at 1000× final concentration and added in a 2-step dilution to the medium to reduce risk of a compound precipitating out of solution when added to the cells, and to ensure reasonable pipetting volumes. […] The plate was mixed by carefully swirling and after all wells were treated and returned to the incubator overnight. If desired, separate plates/wells were treated with vehicle-only controls and/or positive controls. If using multi-well plates, controls were included on each plate. After about 18 hours, cells were harvested for further analysis, e.g., ChIP-seq, RNA-seq, ATAC-seq, etc. This protocol is a modified version of the following protocols: MagMAX mirVana Total RNA Isolation Kit User Guide (Applied Biosystems #MAN0011131 Rev B.0), NEBNext Poly(A) mRNA Magnetic Isolation Module ([…]), and NEBNext Ultra Directional RNA Library Prep Kit for Illumina ([…]) (New England Biosystems #E74901). […] Two hundred μl of Lysis Binding Mix was used per well of the multiwell plate containing adherent cells (usually a 24-well plate). For mRNA isolation and library prep, the NEBNext Poly(A) mRNA Magnetic Isolation Module and Directional Prep kit was used. RNA isolated from cells above was quantified, and prepared in […] of each sample in 50 μl of nuclease-free water. This protocol may be run in microfuge tubes or in a 96-well plate. […] Genomic alignments were converted to transcriptome alignments based on reference transcript annotations from the Human GENCODE Gene Set release 24 (Harrow et al., Genome Res. […] Using unique and multimapped transcriptomic alignments, gene-level abundance estimates were computed using RSEM version 1.3.0 (Li and Dewey, BMC Bioinformatics (2011) 12:323) in a strand-aware manner, and including confidence interval sampling calculations, to arrive at posterior mean estimates (PME) of abundances (counts and normalized FPKM-fragments per kilobase of exon per million mapped fragments) from the underlying Bayesian model. Standard QC were applied (read integrity, mapping statistics, library complexity, fragment bias) to remove unsatisfactory samples. Differential gene expression was computed using the negative binomial model implemented by DESeq2 version 1.16.1 (Love et al., Genome Biol. (2014) 15(12):550). […] RNA-seq signals were also normalized by read depth and visualized using the UCSC browser. To identify small molecules that modulate target gene expression, primary human hepatocytes were prepared as a monoculture, and at least one small molecule compound was applied to the cells. RNA-seq was performed to determine the effects of the compounds on the expression of the target genes in hepatocytes. Fold change was calculated by dividing the level of expression in the cell system that had been perturbed by the level of expression in an unperturbed system.

In another data set the test system is UGT1A1. Briefly: RNA-seq of UGT1A1 expression in compound-treated primary human hepatocytes. In kind it is cell-based. In outline:
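Cryopreserved primary human hepatocytes from three donors were plated in 24-well format, then treated with compound diluted from 1000× stocks in serum-free maintenance medium for about 16–18 h. Poly(A) RNA-seq log2 fold change was computed against vehicle/pan-experiment controls. Significance required FPKM ≥1, log2FC ≥0.5 and q ≤0.05.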

The next data set concerns APOL1 mRNA. Briefly: APOL1 mRNA in primary human hepatocytes treated with Momelotinib or metabolite M21. In kind it is cell-based. Particulars: 3.3 uM vs DMSO (FIG. 11, FIG. 12).

Regarding `C=CCNC1=C2C[C@@H](C)C[C@H](OC)[C@H](O)[C@@H](C)/C=C(\C)[C@H](OC(N)=O)[C@@H](OC)/C=C\C=C(/C)C(=O)NC(=CC1=O)C2=O` [17-AAG (Tanespimycin), Tanespimycin], the “MECP2 mRNA change in mouse hepatocytes” value in the data set on MECP2 mRNA [1] is on record as “increased”. Moreover, in the data set with MECP2 mRNA [2], the “MECP2 mRNA change in primary human hepatocytes” value was “dose-dependent increase”.
On to `COc1ccc(-c2ccc3c(N4CCOC[C@@H]4C)nc(N4CCOC[C@@H]4C)nc3n2)cc1CO` [AZD8055], for which the “ANGPTL3-LINEAR FOLD CHANGE” value in the data set on ANGPTL3 is reported as 0.4965. Besides, in the data set with SERPINC1 mRNA [3], the “SERPINC1 mRNA, Lonza Hu4282, 1 uM” value came out at 1.3 and the “SERPINC1 mRNA, Lonza Hu4282, 10 uM” value was 1.61. Also, in the data set on SERPINC1 mRNA [4], the “SERPINC1 mRNA, Mouse Heps, 1 uM” value came out at 3.2 and the “SERPINC1 mRNA, Mouse Heps, 10 uM” value is given as 3.4. Further, the “SERPINC1, MGH54 (RNA seq), 10 uM” value with SERPINC1 mRNA [5] came to 0.
Take `COc1cc2c(Oc3ccc(NC(=O)C4(C(=O)Nc5ccc(F)cc5)CC4)cc3F)ccnc2cc1OCCCN1CCOCC1` [Foretinib]: in the data set on SERPINC1 mRNA [3], the “SERPINC1 mRNA, H8290, 1 uM” value is reported as 1; the “SERPINC1 mRNA, H8290, 10 uM” value is reported as 2.2; the “SERPINC1 mRNA, Lonza Hu4282, 1 uM” value was determined as 1.04; the “SERPINC1 mRNA, Lonza Hu4282, 10 uM” value worked out at 1.36. Also, in the data set with SERPINC1 mRNA [4], the “SERPINC1 mRNA, Mouse Heps, 1 uM” value worked out at 1.05 and the “SERPINC1 mRNA, Mouse Heps, 10 uM” value worked out at 0.93. In the data set with SERPINC1 mRNA [5], the “SERPINC1, MGH54 (RNA seq), 10 uM” value is reported as 0.
For the molecule `O=C1CCc2c(Oc3ccc4c(c3)[C@@H]3[C@H](O4)[C@H]3c3nc4cc(C(F)(F)F)ccc4[nH]3)ccnc2N1` [Lifirafenib (BGB-283)/BeiGene], in the data set with SERPINC1 mRNA [3], the “SERPINC1 mRNA, H8290, 1 uM” value was 1.1; the “SERPINC1 mRNA, H8290, 10 uM” value was found to be 2.1; the “SERPINC1 mRNA, Lonza Hu4282, 1 uM” value was found to be 1.05; the “SERPINC1 mRNA, Lonza Hu4282, 10 uM” value was found to be 1.21. Also, in the data set on SERPINC1 mRNA [4], the “SERPINC1 mRNA, Mouse Heps, 1 uM” value is 0.81 and the “SERPINC1 mRNA, Mouse Heps, 10 uM” value came out at 1.1. In addition, in the data set on SERPINC1 mRNA [5], the “SERPINC1, MGH54 (RNA seq), 10 uM” value came to 1.43.
As for `N#CCNC(=O)c1ccc(-c2ccnc(Nc3ccc(N4CCOCC4)cc3)n2)cc1` [Momelotinib], the “SERPINC1 Fold Change (Log2)” value in the data set with SERPINC1 amounted to 0.93 Log2. The “UGT1A1 Fold Change (Log2)” value in the data set with UGT1A1 amounted to 1.05 Log2. Further, in the data set with APOL1 mRNA, the “APOL mRNA change in primary human hepatocytes” value is on record as “Downregulation”.
Consider `CC(=O)NCC(=O)N1[C@@H]2CC[C@H]1c1ccc(Nc3ncc(C(F)(F)F)c(NC4CCC4)n3)cc12` [PF-3814735], for which the “ANGPTL3-LINEAR FOLD CHANGE” value in the data set with ANGPTL3 was 0.4383. Moreover, in the data set with SERPINC1 mRNA [3], the “SERPINC1 mRNA, Lonza Hu4282, 1 uM” value amounted to 0.99 and the “SERPINC1 mRNA, Lonza Hu4282, 10 uM” value is listed as 2.6. In the data set with SERPINC1 mRNA [4], the “SERPINC1 mRNA, Mouse Heps, 1 uM” value worked out at 1.2 and the “SERPINC1 mRNA, Mouse Heps, 10 uM” value worked out at 1.86. Moreover, the “SERPINC1, MGH54 (RNA seq), 10 uM” value in the data set with SERPINC1 mRNA [5] is on record as 2.43.
As to `CO[C@H]1C[C@@H]2CC[C@@H](C)[C@@](O)(O2)C(=O)C(=O)N2CCCC[C@H]2C(=O)O[C@H]([C@H](C)C[C@@H]2CC[C@@H](OC(=O)C(C)(CO)CO)[C@H](OC)C2)CC(=O)[C@H](C)/C=C(\C)[C@@H](O)[C@@H](OC)C(=O)[C@H](C)C[C@H](C)/C=C/C=C/C=C/1C` [Temsirolimus], in the data set on SERPINC1 mRNA [3], the “SERPINC1 mRNA, H8290, 1 uM” value turned out to be 1.2 and the “SERPINC1 mRNA, H8290, 10 uM” value was found to be 1.6. Besides, the “SERPINC1, MGH54 (RNA seq), 10 uM” value in the data set with SERPINC1 mRNA [5] is given as 0.
For the molecule `CCn1c(=O)c(-c2cc[nH]n2)cc2c(C)nc(N)nc21` [Voxtalisib], in the data set with SERPINC1 mRNA [3], the “SERPINC1 mRNA, H8290, 1 uM” value is 1.2; the “SERPINC1 mRNA, H8290, 10 uM” value is on record as 1.5; the “SERPINC1 mRNA, Lonza Hu4282, 1 uM” value is 1.1; the “SERPINC1 mRNA, Lonza Hu4282, 10 uM” value amounted to 1.24. Besides, in the data set with SERPINC1 mRNA [4], the “SERPINC1 mRNA, Mouse Heps, 1 uM” value came to 1.23 and the “SERPINC1 mRNA, Mouse Heps, 10 uM” value was found to be 2.4. Also, the “SERPINC1, MGH54 (RNA seq), 10 uM” value in the data set with SERPINC1 mRNA [5] is recorded as 0.
